Data published in patent US12281080B2, “Quinoline-based compounds and methods of inhibiting CDK8/19” (University of South Carolina, priority 2018, dated 2025).

Columns and labels:
EPHB3 = EPHB3 (Homo sapiens (Human), UniProt P54753); assay: KINOMEscan scanMAX; format: binding; conditions: 2000 nM; read-out: Percent Control
SNRK = SNRK (Homo sapiens (Human), UniProt Q9NRH2); assay: KINOMEscan scanMAX; format: binding; conditions: 2000 nM; read-out: Percent Control
ROS1 = ROS1 (Homo sapiens (Human), UniProt P08922); assay: KINOMEscan scanMAX; format: binding; conditions: 2000 nM; read-out: Percent Control
[1] = biological target: RSK1(Kin.Dom.2-C-terminal) (RPS6KA1) (Homo sapiens (Human), UniProt Q15418); assay: KINOMEscan scanMAX; format: binding; conditions: 2000 nM; read-out: Percent Control
MAST1 = MAST1 (Homo sapiens (Human), UniProt Q9Y2H9); assay: KINOMEscan scanMAX; format: binding; conditions: 2000 nM; read-out: Percent Control
PRKD3 = PRKD3 (Homo sapiens (Human), UniProt O94806); assay: KINOMEscan scanMAX; format: binding; conditions: 2000 nM; read-out: Percent Control
EPHA7 = EPHA7 (Homo sapiens (Human), UniProt Q15375); assay: KINOMEscan scanMAX; format: binding; conditions: 2000 nM; read-out: Percent Control
TAOK1 = TAOK1 (Homo sapiens (Human), UniProt Q7L7X3); assay: KINOMEscan scanMAX; format: binding; conditions: 2000 nM; read-out: Percent Control
DYRK2 = DYRK2 (Homo sapiens (Human), UniProt Q92630); assay: KINOMEscan scanMAX; format: binding; conditions: 2000 nM; read-out: Percent Control
KIT = KIT (Homo sapiens (Human), UniProt P10721); assay: KINOMEscan scanMAX; format: binding; conditions: 2000 nM; read-out: Percent Control
PRKD1 = PRKD1 (Homo sapiens (Human), UniProt Q15139); assay: KINOMEscan scanMAX; format: binding; conditions: 2000 nM; read-out: Percent Control
BUB1 = BUB1 (Homo sapiens (Human), UniProt O43683); assay: KINOMEscan scanMAX; format: binding; conditions: 2000 nM; read-out: Percent Control
[2] = system: 4T1 murine triple-negative breast cancer; assay: 4T1 breast cancer metastasis survival model; format: in vivo; conditions: 40 mg/kg, oral, b.i.d., female Balb/c mice after primary tumor removal
Procedure: 4T1 is a murine triple-negative breast cancer (TNBC) cell line, which is highly metastatic to the lungs. 4T1 cells were injected orthotopically in the mammary fat pad of female Balb/c mice and the primary tumors were surgically removed when tumor sizes reach 500-600 mm^3. Mice were then separated into two groups (FIG. 12A, n=8), which were then treated with vehicle (5% dextrose) or Senexin C (40 mg/kg, oral, b.i.d.).

MST4 = MST4 (Homo sapiens (Human), UniProt Q9P289); assay: KINOMEscan scanMAX; format: binding; conditions: 2000 nM; read-out: Percent Control
p38-gamma (MAPK12) = p38-gamma (MAPK12) (Homo sapiens (Human), UniProt P53778); assay: KINOMEscan scanMAX; format: binding; conditions: 2000 nM; read-out: Percent Control
NEK7 = NEK7 (Homo sapiens (Human), UniProt Q8TDX7); assay: KINOMEscan scanMAX; format: binding; conditions: 2000 nM; read-out: Percent Control
MAP3K1 = MAP3K1 (Homo sapiens (Human), UniProt Q13233); assay: KINOMEscan scanMAX; format: binding; conditions: 2000 nM; read-out: Percent Control
MEK5 (MAP2K5) = MEK5 (MAP2K5) (Homo sapiens (Human), UniProt Q13163); assay: KINOMEscan scanMAX; format: binding; conditions: 2000 nM; read-out: Percent Control
PIK3CA(I800L) = PIK3CA(I800L) (Homo sapiens (Human), UniProt P42336, I800L); assay: KINOMEscan scanMAX; format: binding; conditions: 2000 nM; read-out: Percent Control
PRKX = PRKX (Homo sapiens (Human), UniProt P51817); assay: KINOMEscan scanMAX; format: binding; conditions: 2000 nM; read-out: Percent Control
CDK4 = CDK4 (Homo sapiens (Human), UniProt P11802); assay: KINOMEscan scanMAX; format: binding; conditions: 2000 nM; read-out: Percent Control
MST3 (STK24) = MST3 (STK24) (Homo sapiens (Human), UniProt Q9Y6E0); assay: KINOMEscan scanMAX; format: binding; conditions: 2000 nM; read-out: Percent Control
DRAK1 (STK17A) = DRAK1 (STK17A) (Homo sapiens (Human), UniProt Q9UEE5); assay: KINOMEscan scanMAX; format: binding; conditions: 2000 nM; read-out: Percent Control
DDR2 = DDR2 (Homo sapiens (Human), UniProt Q16832); assay: KINOMEscan scanMAX; format: binding; conditions: 2000 nM; read-out: Percent Control
NDR2 (STK38L) = NDR2 (STK38L) (Homo sapiens (Human), UniProt Q9Y2H1); assay: KINOMEscan scanMAX; format: binding; conditions: 2000 nM; read-out: Percent Control
CSNK1A1L = CSNK1A1L (Homo sapiens (Human), UniProt Q8N752); assay: KINOMEscan scanMAX; format: binding; conditions: 2000 nM; read-out: Percent Control
EPHA3 = EPHA3 (Homo sapiens (Human), UniProt P29320); assay: KINOMEscan scanMAX; format: binding; conditions: 2000 nM; read-out: Percent Control
EGFR = EGFR (Homo sapiens (Human), UniProt P00533); assay: KINOMEscan scanMAX; format: binding; conditions: 2000 nM; read-out: Percent Control
SGK3 = SGK3 (Homo sapiens (Human), UniProt Q96BR1); assay: KINOMEscan scanMAX; format: binding; conditions: 2000 nM; read-out: Percent Control
PIM2 = PIM2 (Homo sapiens (Human), UniProt Q9P1W9); assay: KINOMEscan scanMAX; format: binding; conditions: 2000 nM; read-out: Percent Control
DYRK1A = DYRK1A (Homo sapiens (Human), UniProt Q13627); assay: KINOMEscan scanMAX; format: binding; conditions: 2000 nM; read-out: Percent Control
IRAK3 = IRAK3 (Homo sapiens (Human), UniProt Q9Y616); assay: KINOMEscan scanMAX; format: binding; conditions: 2000 nM; read-out: Percent Control
PCTK3 (CDK18) = PCTK3 (CDK18) (Homo sapiens (Human), UniProt Q07002); assay: KINOMEscan scanMAX; format: binding; conditions: 2000 nM; read-out: Percent Control
PIP5K1A = PIP5K1A (Homo sapiens (Human), UniProt Q99755); assay: KINOMEscan scanMAX; format: binding; conditions: 2000 nM; read-out: Percent Control
CLK4 = CLK4 (Homo sapiens (Human), UniProt Q9HAZ1); assay: KINOMEscan scanMAX; format: binding; conditions: 2000 nM; read-out: Percent Control
EPHB6 = EPHB6 (Homo sapiens (Human), UniProt O15197); assay: KINOMEscan scanMAX; format: binding; conditions: 2000 nM; read-out: Percent Control
TAOK3 = TAOK3 (Homo sapiens (Human), UniProt Q9H2K8); assay: KINOMEscan scanMAX; format: binding; conditions: 2000 nM; read-out: Percent Control
CDKL2 = CDKL2 (Homo sapiens (Human), UniProt Q92772); assay: KINOMEscan scanMAX; format: binding; conditions: 2000 nM; read-out: Percent Control

Sequence of SGK3 (Q96BR1 whole entry): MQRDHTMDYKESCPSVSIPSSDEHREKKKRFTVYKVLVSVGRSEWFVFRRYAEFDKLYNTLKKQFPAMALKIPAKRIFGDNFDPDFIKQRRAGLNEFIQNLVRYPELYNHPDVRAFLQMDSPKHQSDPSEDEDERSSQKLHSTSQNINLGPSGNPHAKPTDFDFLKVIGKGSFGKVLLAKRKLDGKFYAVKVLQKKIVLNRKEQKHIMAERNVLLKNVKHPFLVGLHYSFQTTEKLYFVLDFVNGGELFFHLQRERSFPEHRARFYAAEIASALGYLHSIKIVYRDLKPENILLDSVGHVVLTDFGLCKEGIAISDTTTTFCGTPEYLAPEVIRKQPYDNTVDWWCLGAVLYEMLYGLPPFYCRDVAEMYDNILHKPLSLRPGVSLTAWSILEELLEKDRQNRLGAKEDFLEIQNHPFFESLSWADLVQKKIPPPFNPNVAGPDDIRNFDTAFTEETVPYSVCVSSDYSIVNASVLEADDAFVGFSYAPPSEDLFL
Sequence of DYRK2 (Q92630 whole entry): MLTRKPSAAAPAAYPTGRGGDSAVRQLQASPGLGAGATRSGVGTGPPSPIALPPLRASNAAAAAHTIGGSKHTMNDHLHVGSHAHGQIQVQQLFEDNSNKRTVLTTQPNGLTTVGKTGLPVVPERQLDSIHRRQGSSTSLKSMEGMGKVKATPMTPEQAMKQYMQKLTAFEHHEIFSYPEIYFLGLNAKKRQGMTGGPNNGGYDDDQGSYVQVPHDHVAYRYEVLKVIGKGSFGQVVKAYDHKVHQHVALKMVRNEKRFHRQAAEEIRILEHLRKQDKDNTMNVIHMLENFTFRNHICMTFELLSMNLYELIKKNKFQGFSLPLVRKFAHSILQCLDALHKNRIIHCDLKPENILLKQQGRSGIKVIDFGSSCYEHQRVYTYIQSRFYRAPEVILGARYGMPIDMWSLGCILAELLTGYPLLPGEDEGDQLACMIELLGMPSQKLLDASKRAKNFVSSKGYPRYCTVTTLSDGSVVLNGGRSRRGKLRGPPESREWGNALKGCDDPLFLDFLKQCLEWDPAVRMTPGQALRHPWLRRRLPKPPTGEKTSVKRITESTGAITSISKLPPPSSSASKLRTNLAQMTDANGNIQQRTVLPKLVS
Sequence of PIP5K1A (Q99755 whole entry): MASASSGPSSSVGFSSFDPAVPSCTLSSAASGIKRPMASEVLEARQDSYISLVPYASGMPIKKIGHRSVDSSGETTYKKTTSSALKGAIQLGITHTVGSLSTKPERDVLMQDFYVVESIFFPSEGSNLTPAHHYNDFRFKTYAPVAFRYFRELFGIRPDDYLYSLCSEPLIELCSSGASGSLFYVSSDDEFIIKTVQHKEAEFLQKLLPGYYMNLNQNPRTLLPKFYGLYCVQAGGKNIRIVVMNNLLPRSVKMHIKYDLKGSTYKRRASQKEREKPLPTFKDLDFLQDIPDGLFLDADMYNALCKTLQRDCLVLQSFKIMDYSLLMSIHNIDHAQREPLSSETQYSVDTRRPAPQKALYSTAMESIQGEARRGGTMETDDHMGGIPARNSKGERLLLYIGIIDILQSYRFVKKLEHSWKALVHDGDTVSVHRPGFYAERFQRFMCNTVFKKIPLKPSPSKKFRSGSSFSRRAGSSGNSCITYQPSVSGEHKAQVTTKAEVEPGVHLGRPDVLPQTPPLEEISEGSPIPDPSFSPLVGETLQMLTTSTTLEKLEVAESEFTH
Sequence of PRKX (P51817 whole entry): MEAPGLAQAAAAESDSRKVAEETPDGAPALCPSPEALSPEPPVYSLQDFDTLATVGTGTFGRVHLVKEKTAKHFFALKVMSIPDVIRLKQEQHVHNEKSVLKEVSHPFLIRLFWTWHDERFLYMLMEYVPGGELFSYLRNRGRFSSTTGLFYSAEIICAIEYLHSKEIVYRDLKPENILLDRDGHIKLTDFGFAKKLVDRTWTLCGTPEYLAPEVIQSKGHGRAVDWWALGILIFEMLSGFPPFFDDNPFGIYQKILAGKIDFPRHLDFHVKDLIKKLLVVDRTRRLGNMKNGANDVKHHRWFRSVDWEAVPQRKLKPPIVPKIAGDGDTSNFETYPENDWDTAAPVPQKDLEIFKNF
Sequence of CLK4 (Q9HAZ1 whole entry): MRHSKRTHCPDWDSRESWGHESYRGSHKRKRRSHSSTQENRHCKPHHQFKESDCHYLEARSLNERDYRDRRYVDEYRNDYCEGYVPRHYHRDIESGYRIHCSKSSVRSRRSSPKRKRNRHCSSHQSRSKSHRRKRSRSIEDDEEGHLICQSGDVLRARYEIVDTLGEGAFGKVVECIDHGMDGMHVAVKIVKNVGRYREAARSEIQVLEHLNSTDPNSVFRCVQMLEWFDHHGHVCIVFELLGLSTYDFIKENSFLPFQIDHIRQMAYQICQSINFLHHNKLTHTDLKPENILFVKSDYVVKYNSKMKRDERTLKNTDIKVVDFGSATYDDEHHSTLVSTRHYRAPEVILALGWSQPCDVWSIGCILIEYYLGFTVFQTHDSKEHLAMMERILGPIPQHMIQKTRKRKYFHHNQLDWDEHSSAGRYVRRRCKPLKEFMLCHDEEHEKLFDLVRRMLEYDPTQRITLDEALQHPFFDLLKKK
Sequence of PRKD3 (O94806 whole entry): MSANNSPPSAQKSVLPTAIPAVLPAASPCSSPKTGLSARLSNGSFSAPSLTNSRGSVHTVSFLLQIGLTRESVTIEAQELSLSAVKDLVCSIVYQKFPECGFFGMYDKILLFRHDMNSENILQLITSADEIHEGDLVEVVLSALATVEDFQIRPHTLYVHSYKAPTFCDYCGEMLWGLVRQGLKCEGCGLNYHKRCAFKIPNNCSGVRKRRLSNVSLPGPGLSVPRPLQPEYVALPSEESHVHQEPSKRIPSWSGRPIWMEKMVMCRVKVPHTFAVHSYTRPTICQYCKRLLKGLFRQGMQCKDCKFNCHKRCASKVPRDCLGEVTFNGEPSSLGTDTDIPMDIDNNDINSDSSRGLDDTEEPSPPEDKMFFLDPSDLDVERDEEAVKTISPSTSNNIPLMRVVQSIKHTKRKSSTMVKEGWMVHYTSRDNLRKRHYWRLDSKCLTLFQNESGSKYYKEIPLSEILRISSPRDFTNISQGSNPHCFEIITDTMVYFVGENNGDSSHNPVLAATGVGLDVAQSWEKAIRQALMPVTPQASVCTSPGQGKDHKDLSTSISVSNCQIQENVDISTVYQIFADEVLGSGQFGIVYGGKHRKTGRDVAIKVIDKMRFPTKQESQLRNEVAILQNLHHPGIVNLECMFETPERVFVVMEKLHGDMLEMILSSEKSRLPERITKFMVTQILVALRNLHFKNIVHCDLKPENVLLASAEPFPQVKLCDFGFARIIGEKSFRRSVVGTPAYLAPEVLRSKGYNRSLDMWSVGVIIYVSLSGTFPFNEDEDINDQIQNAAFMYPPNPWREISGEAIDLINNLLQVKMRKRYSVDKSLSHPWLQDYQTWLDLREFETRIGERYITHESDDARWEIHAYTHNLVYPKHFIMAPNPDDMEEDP
Sequence of TAOK3 (Q9H2K8 whole entry): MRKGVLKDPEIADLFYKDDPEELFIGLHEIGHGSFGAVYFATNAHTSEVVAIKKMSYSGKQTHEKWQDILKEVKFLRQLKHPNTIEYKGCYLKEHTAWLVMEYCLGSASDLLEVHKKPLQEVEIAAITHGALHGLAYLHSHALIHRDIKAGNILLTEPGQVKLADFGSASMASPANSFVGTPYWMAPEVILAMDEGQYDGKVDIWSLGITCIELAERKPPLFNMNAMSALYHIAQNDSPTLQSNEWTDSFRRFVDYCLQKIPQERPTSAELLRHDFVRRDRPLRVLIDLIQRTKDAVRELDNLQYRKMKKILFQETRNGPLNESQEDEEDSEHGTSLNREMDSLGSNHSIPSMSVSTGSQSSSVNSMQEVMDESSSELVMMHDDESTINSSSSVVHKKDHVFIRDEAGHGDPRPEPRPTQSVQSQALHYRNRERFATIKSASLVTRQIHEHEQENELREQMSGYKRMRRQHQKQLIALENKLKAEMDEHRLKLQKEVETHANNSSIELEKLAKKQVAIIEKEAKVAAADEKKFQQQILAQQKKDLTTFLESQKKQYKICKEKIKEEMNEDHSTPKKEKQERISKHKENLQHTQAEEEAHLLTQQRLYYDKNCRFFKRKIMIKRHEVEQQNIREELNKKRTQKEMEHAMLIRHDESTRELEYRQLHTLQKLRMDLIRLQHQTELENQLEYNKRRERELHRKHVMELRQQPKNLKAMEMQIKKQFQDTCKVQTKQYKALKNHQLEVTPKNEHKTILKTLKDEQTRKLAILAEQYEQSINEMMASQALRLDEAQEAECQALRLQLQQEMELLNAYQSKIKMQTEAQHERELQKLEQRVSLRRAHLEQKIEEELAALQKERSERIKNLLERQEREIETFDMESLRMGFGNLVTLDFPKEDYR
Sequence of CDK4 (P11802 whole entry): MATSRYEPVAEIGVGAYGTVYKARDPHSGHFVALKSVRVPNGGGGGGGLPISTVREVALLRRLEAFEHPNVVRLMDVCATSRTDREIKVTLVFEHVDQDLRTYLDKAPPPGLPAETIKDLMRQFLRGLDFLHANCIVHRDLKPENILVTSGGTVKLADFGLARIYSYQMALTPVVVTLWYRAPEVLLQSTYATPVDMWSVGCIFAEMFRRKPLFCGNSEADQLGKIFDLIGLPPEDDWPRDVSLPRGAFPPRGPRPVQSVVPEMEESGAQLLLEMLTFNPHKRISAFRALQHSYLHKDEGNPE
Sequence of PIM2 (Q9P1W9 whole entry): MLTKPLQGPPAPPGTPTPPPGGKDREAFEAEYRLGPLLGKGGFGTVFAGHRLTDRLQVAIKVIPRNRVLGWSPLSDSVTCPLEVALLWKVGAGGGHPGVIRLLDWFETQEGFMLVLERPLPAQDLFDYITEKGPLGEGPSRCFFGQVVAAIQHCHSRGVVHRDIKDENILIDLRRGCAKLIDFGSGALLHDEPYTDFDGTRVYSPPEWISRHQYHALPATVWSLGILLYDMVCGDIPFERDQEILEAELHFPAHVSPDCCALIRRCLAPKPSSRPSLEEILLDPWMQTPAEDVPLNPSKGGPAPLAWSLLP

Structure (SMILES): CN1CCN(C(=O)c2ccc3cc(CCNc4ccnc5ccc(C#N)cc45)ccc3c2)CC1 [compound 6148, 4-((2-(6-(4-methylpiperazine-1-carbonyl)naphthalen-2-yl)ethyl)amino)quinoline-6-carbonitrile]
- remaining binding at 2 µM (EPHB3): 81%
- remaining binding at 2 µM (SNRK): 75%
- remaining binding at 2 µM (ROS1): 91%
- remaining binding at 2 µM [1]: 97%
- remaining binding at 2 µM (MAST1): 96%
- remaining binding at 2 µM (PRKD3): 100%
- remaining binding at 2 µM (EPHA7): 91%
- remaining binding at 2 µM (TAOK1): 76%
- remaining binding at 2 µM (DYRK2): 68%
- remaining binding at 2 µM (KIT): 95%
- remaining binding at 2 µM (PRKD1): 90%
- remaining binding at 2 µM (BUB1): 68%
- Mouse survival of the metastatic disease [2]: significantly increased
- remaining binding at 2 µM (MST4): 68%
- remaining binding at 2 µM (p38-gamma (MAPK12)): 100%
- remaining binding at 2 µM (NEK7): 94%
- remaining binding at 2 µM (MAP3K1): 78%
- remaining binding at 2 µM (MEK5 (MAP2K5)): 63%
- remaining binding at 2 µM (PIK3CA(I800L)): 72%
- remaining binding at 2 µM (PRKX): 100%
- remaining binding at 2 µM (CDK4): 67%
- remaining binding at 2 µM (MST3 (STK24)): 100%
- remaining binding at 2 µM (DRAK1 (STK17A)): 100%
- remaining binding at 2 µM (DDR2): 64%
- remaining binding at 2 µM (NDR2 (STK38L)): 96%
- remaining binding at 2 µM (CSNK1A1L): 88%
- remaining binding at 2 µM (EPHA3): 100%
- remaining binding at 2 µM (EGFR): 91%
- remaining binding at 2 µM (SGK3): 75%
- remaining binding at 2 µM (PIM2): 81%
- remaining binding at 2 µM (DYRK1A): 63%
- remaining binding at 2 µM (IRAK3): 94%
- remaining binding at 2 µM (PCTK3 (CDK18)): 97%
- remaining binding at 2 µM (PIP5K1A): 84%
- remaining binding at 2 µM (CLK4): 69%
- remaining binding at 2 µM (EPHB6): 86%
- remaining binding at 2 µM (TAOK3): 79%
- remaining binding at 2 µM (CDKL2): 75%
